Results: ChEMBL document CHEMBL5653615 (J Biol Chem, 2013)

What was measured:
[1] = target: T1, Serine/threonine-protein kinase haspin (Homo sapiens) (UniProt Q8TF76); test: Inhibition of human Haspin at 1.82 nM by HotSpot assay relative to control
T1 sequence (whole entry): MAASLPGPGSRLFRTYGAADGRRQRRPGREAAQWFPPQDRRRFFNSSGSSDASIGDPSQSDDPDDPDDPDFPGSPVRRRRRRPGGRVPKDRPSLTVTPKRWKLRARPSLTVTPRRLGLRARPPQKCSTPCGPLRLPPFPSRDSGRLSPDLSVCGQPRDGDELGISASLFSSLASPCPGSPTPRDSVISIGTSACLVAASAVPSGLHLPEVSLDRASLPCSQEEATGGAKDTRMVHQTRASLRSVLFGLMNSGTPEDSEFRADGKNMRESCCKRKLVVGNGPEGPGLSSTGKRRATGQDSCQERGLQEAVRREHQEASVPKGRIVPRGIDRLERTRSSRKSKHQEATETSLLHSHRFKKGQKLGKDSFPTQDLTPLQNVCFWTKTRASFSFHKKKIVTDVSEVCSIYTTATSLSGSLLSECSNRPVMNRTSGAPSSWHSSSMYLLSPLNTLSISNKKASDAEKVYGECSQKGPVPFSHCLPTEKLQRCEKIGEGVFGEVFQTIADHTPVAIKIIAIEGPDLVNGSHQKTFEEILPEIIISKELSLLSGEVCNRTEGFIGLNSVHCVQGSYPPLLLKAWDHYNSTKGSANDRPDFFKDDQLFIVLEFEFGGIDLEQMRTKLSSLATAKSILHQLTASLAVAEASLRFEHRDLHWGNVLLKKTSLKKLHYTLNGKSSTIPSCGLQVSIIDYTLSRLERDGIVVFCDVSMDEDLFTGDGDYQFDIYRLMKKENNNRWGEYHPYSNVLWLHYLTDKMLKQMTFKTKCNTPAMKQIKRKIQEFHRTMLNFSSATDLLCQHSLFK

[2] = target: T2, NUAK family SNF1-like kinase 1 (Homo sapiens) (UniProt O60285); test: Inhibition of human ARK5 at 1.82 nM by HotSpot assay relative to control
T2 sequence (whole entry): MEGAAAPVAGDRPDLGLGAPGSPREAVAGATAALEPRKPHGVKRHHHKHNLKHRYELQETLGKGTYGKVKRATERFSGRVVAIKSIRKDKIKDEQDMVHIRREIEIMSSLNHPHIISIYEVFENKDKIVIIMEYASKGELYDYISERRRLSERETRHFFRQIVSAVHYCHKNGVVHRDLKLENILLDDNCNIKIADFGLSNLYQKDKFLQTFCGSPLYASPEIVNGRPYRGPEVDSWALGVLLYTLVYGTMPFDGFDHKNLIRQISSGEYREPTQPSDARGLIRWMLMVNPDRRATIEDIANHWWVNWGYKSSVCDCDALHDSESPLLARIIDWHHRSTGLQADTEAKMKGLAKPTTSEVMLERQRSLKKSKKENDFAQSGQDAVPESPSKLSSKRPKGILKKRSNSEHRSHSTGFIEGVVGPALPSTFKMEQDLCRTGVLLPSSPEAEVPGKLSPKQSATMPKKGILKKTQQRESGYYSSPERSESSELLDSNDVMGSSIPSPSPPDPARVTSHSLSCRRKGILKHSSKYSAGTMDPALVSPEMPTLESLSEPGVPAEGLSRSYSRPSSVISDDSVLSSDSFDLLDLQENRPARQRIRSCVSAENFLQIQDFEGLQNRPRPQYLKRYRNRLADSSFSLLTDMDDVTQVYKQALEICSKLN

[3] = target: Receptor-interacting serine/threonine-protein kinase 2 (Homo sapiens) (UniProt O43353); test: Inhibition of human RIPK2 at 1.82 nM by HotSpot assay relative to control
Sequence of Receptor-interacting serine/threonine-protein kinase 2 (Homo sapiens) (O43353 whole entry): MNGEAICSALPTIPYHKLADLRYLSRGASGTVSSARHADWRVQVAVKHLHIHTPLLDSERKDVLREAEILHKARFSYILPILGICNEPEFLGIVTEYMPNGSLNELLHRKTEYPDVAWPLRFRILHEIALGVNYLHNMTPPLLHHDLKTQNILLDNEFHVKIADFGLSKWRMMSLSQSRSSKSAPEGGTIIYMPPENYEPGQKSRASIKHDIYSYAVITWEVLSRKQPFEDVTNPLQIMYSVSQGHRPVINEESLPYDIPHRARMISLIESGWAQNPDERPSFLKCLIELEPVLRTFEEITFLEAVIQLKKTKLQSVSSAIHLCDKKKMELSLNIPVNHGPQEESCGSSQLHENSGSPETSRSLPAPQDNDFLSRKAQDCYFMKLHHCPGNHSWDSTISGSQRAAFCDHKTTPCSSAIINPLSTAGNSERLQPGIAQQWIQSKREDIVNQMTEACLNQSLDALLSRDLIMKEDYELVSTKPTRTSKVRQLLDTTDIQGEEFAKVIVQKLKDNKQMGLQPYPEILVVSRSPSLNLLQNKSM

[4] = target: T3, Serine/threonine-protein kinase 4 (Homo sapiens) (UniProt Q13043); test: Inhibition of human STK4 at 1.82 nM by HotSpot assay relative to control
T3 sequence (whole entry): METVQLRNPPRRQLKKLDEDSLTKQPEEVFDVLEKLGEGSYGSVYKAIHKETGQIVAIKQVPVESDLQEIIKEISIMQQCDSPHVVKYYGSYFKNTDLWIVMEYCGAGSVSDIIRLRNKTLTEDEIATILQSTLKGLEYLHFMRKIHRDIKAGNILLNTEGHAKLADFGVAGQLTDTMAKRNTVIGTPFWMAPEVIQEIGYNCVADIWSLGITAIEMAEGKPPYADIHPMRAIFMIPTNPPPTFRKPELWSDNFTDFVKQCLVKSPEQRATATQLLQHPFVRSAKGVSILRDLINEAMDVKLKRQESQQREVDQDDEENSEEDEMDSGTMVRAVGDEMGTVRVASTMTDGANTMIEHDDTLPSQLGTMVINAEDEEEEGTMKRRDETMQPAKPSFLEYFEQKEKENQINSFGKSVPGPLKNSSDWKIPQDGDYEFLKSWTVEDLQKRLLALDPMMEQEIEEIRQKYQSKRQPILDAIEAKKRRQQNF

[5] = target: Serine/threonine-protein kinase MARK1 (Homo sapiens) (UniProt Q9P0L2); test: Inhibition of human MARK1 at 18.6 nM by HotSpot assay relative to control
Sequence of Serine/threonine-protein kinase MARK1 (Homo sapiens) (Q9P0L2 whole entry, looked up): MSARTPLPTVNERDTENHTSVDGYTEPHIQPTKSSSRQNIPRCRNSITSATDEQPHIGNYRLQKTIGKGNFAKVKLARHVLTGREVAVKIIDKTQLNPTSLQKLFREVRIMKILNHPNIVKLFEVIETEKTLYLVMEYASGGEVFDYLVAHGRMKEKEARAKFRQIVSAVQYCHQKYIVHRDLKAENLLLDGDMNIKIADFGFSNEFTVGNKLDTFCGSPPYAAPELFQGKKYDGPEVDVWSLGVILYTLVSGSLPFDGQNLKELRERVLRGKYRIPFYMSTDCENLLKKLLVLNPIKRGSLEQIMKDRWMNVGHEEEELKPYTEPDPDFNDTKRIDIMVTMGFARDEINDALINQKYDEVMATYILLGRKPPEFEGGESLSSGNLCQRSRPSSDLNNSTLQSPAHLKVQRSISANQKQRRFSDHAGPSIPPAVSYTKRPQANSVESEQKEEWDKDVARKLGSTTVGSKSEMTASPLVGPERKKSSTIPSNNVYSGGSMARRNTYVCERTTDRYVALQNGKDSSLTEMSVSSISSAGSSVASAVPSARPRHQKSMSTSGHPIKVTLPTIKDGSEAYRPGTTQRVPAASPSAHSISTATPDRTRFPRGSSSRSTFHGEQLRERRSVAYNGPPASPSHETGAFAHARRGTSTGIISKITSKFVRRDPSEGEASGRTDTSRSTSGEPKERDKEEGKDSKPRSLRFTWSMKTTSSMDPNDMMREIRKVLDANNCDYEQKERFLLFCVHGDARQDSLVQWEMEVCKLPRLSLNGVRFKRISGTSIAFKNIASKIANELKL

[6] = target: T4, Protein kinase C epsilon type (Homo sapiens) (UniProt Q02156); test: Inhibition of human PKCepsilon at 18.6 nM by HotSpot assay relative to control
T4 sequence (whole entry): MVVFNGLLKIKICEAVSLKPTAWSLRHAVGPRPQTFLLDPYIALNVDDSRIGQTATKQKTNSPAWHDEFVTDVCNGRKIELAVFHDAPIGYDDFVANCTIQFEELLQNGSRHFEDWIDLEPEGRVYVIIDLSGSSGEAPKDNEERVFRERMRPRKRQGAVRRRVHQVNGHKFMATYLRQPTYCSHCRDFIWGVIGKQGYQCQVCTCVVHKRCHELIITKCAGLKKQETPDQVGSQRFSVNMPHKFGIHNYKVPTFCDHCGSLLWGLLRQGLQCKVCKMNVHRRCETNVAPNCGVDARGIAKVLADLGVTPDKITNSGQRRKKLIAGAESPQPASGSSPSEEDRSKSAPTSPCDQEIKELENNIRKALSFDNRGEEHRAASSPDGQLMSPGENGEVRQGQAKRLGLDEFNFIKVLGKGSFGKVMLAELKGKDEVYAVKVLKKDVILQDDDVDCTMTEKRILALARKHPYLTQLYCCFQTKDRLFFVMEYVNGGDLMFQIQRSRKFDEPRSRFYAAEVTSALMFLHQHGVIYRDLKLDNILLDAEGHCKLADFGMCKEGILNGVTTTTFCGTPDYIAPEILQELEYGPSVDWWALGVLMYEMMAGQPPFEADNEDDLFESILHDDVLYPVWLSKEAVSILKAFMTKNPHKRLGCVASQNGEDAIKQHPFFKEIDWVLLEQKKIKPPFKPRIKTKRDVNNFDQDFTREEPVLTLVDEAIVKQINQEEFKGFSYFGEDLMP

[7] = target: TGF-beta receptor type-2 (Homo sapiens) (UniProt P37173); test: Inhibition of human TGFBR2 at 18.6 nM by HotSpot assay relative to control
Sequence of TGF-beta receptor type-2 (Homo sapiens) (P37173 whole entry): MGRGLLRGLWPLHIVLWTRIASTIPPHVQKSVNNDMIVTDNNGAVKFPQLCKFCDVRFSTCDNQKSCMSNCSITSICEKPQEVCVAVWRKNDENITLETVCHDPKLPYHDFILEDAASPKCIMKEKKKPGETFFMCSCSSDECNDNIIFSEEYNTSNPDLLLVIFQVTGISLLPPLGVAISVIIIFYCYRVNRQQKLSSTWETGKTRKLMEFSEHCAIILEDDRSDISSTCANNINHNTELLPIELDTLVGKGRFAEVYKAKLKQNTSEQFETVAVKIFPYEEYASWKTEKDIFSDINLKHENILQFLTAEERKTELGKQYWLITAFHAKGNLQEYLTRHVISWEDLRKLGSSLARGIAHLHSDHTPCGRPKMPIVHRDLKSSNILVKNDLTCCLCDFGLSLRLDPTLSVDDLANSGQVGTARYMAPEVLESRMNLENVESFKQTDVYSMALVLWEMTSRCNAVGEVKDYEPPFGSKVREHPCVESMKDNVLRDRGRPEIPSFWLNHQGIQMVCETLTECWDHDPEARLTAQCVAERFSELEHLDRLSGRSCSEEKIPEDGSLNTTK

SMILES | inhibition [1] | inhibition [2] | inhibition [3] | inhibition [4] | inhibition [5] | inhibition [6] | inhibition [7]
C[C@@]1(C(=O)Nc2ccc(F)nc2)CCCN1c1nc(Nc2cc(C3CC3)n[nH]2)c2cccn2n1 | -1.25% | 1.78% | 6.56% | 9.85% | – | – | –
C[C@]1(O)C[C@@H](c2nc(-c3ccc4ccc(-c5ccccc5)nc4c3)c3c(N)nccn32)C1 | – | – | – | – | -7.27% | -9.61% | 8.98%
